In patent US20100222319A1, “NICOTINAMIDE DERIVATIVES, PREPARATION THEREOF AND THERAPEUTIC USE THEREOF” (SANOFI-AVENTIS, priority 2007, published 2010):

Experiments:
HCT116 (ATCC-CCL247) = assay: MTS cell proliferation and viability test on HCT116 tumour line; assay type: cell-based; conditions: Homo sapiens, HCT-116, incubating the test compound for 72 hours, read-out: IC50 HCT116 (concentration which results in 50% loss of cell proliferation and viability)
Protocol: (§1) The compounds described in Table I have formed the subject of pharmacological trials which make it possible to determine the anticancer activity. They were tested in vitro on the following tumour lines: HCT116 (ATCC-CCL247) and PC3 (ATCC-CRL1435). The cell proliferation and viability were determined in a test using 3-(4,5-dimethylthiazol-2-yl)-5-(3-carboxymethoxyphenyl)-2-(4-sulphophenyl)-2H-tetrazolium (MTS) according to Fujishita T. et al., Oncology, 2003, 64(4), 399-406. In this test, the mitochondrial capacity of the living cells to convert MTS to a coloured compound after incubating the test compound for 72 hours is measured. The concentration of compound which results in 50% loss of cell proliferation and viability is recorded as IC50.

PC3 (ATCC-CRL1435) = assay: MTS cell proliferation and viability test on PC3 tumour line; assay type: cell-based; conditions: incubating the test compound for 72 hours, read-out: IC50 PC3 (concentration which results in 50% loss of cell proliferation and viability)
Protocol: as §1

Row | Structure (SMILES) | IC50 (HCT116 (ATCC-CCL247)) [nM] | IC50 (PC3 (ATCC-CRL1435)) [nM] | melting point [°C]
1 | CCNc1nc(-c2ccc(NC(=O)NCc3ccc(N)nc3)cc2)ccc1C(=O)NCCN1CCCCC1 [Compound 81, 6-{-4-[3-(6-Amino-pyridin-3-ylmethyl)-ureido]-phenyl}-2-ethylamino-N-(2-piperidin-1-yl-ethyl)-nicotinamide] | 0.1 | 0.1 | 
2 | CNC(=O)c1ccc(-c2ccc(NC(=O)NCc3cccnc3)cc2)nc1N1CCCC1 [Compound 49, N-Methyl-6-[4-(3-pyridin-3-ylmethyl-ureido)-phenyl]-2-pyrrolidin-1-yl-nicotinamide] | 331 | 316 | 
3 | CCNc1nc(-c2ccc(NC(=O)NCc3ccc(NC(C)C)nc3)cc2)ccc1C(=O)NCCN1CCCCC1 [Compound 108, 2-Ethylamino-6-{-4-[3-(6-isopropylamino-pyridin-3-ylmethyl)-ureido]-phenyl}-N-(2-piperidin-1-yl-ethyl)-nicotinamide] | 271 | 345 | 
4 | CCNc1nc(-c2ccc(NC(=O)NCc3cccnc3)cc2)ccc1C(=O)NCCN1CCNCC1 [Compound 5, 2-Ethylamino-N-(2-piperazin-1-yl-ethyl)-6-[4-(3-pyridin-3-ylmethyl-ureido)-phenyl]-nicotinamide] | 1.8 | 0.8 | 
5 | CCNc1nc(-c2ccc(NC(=O)NCc3ccc(N)nc3)cc2)ccc1C(=O)NCCN1CC[S+]([O-])CC1 [Compound 103, 6-{-4-[3-(6-Amino-pyridin-3-ylmethyl)-ureido]-phenyl}-2-ethylamino-N-[2-(1-oxo-1-thiomorpholin-4-yl)-ethyl]-nicotinamide] | 1.8 | 3 | 
6 | CCNc1nc(-c2ccc(NC(=O)/C=C/c3cccnc3)cc2)ccc1C(=O)NCCN(C(C)C)C(C)C [Compound 74, N-(2-Diisopropylamino-ethyl)-2-ethylamino-6-[4-((E)-3-pyridin-3-yl-acryloylamino)-phenyl]-nicotinamide] | 116 | 21 | 
7 | CCNc1nc(-c2ccc(NC(=O)NCc3ccc(N)nc3)cc2)ccc1C(=O)NCCN1C[C@@H](C)O[C@@H](C)C1 [Compound 114, 6-{-4-[3-(6-Amino-pyridin-3-ylmethyl)-ureido]-phenyl}-N-[2-(cis-2,6-dimethyl-morpholin-4-yl)-ethyl]-2-ethylamino-nicotinamide] | 0.1 | 0.1 | 
8 | O=C(NCc1cccnc1)Nc1ccc(-c2ccc(C(=O)NCCN3CCCC3)c(Nc3ccccc3)n2)cc1 [Compound 33, 2-Phenylamino-6-[4-(3-pyridin-3-ylmethyl-ureido)-phenyl]-N-(2-pyrrolidin-1-yl-ethyl)-nicotinamide] | 0.37 | 0.3 | 
9 | CCNc1cc(-c2ccc(NC(=O)NCc3cccnc3)cc2)ncc1C(=O)NC [Compound 55, 4-Ethylamino-N-methyl-6-[4-(3-pyridin-3-ylmethyl-ureido)-phenyl]-nicotinamide] | 35 | 45 | 
10 | CCNc1nc(-c2ccc(NC(=O)NCc3ccc(NC(=O)C(C)C)nc3)cc2)ccc1C(=O)NCCN1CCCCC1 [Compound 107, 2-Ethylamino-6-{4-[3-(6-isobutyrylamino-pyridin-3-ylmethyl)-ureido]-phenyl}-N-(2-piperidin-1-yl-ethyl)-nicotinamide] | 221 | 105 | 
11 | CCNc1nc(-c2ccc(NC(=O)NCc3cccnc3)cc2)ccc1C(=O)NCCN(C(C)C)C(C)C [Compound 8, N-(2-Diisopropylamino-ethyl)-2-ethylamino-6-[4-(3-pyridin-3-ylmethyl-ureido)-phenyl]-nicotinamide] |  |  | 160 to 162
12 | CCNc1nc(-c2ccc(NC(=O)NCc3cccnc3)cc2)ccc1C(=O)NCCN1CCCCC1 [Compound 13, 2-Ethylamino-N-(2-piperidin-1-yl-ethyl)-6-[4-(3-pyridin-3-ylmethyl-ureido)-phenyl]-nicotinamide] | 0.1 | 0.2 | 164 to 165

The remaining lines, values ahead:

Row | IC50 (HCT116 (ATCC-CCL247)) [nM] | IC50 (PC3 (ATCC-CRL1435)) [nM] | melting point [°C] | Structure (SMILES)
13 | 0.1 | 0.1 |  | CNC(=O)c1ccc(-c2ccc(NC(=O)NCc3cccnc3)cc2)nc1NC1CC1 [Compound 23, 2-Cyclopropylamino-N-methyl-6-[4-(3-pyridin-3-ylmethyl-ureido)-phenyl]-nicotinamide]
14 | 34 | 28 |  | CNC(=O)c1ccc(-c2ccc(NC(=O)NCc3cccnc3)cc2)nc1NCc1ccccc1 [Compound 19, 2-Benzylamino-N-methyl-6-[4-(3-pyridin-3-ylmethyl-ureido)-phenyl]-nicotinamide]
15 | 294 | 266 |  | CNC(=O)c1ccc(-c2ccc(NC(=O)NCc3cccnc3)cc2)nc1NCCN1CCCCC1 [Compound 17, N-Methyl-2-(2-piperidin-1-yl-ethylamino)-6-[4-(3-pyridin-3-ylmethyl-ureido)-phenyl]-nicotinamide]
16 | 11 | 10 |  | CCNc1nc(-c2ccc(NC(=O)NCc3cccnc3)cc2)ncc1C(=O)NC [Compound 47, 4-Ethylamino-2-[4-(3-pyridin-3-ylmethyl-ureido)-phenyl]-pyrimidine-5-carboxylic acid methylamide]
17 |  |  | 218 to 219 | CNC(=O)c1ccc(-c2ccc(NC(=O)NCc3cccnc3)cc2)nc1NCc1ccncc1 [Compound 15, N-Methyl-2-[(pyridin-4-ylmethyl)-amino]-6-[4-(3-pyridin-3-ylmethyl-ureido)-phenyl]-nicotinamide]
18 |  |  | 234 to 236 | CNC(=O)c1ccc(-c2ccc(NC(=O)NCc3cccnc3)cc2)nc1N [Compound 3, 2-Amino-N-methyl-6-[4-(3-pyridin-3-ylmethyl-ureido)-phenyl]-nicotinamide]
19 | 19 | 113 |  | CNC(=O)c1ccc(-c2ccc(NC(=O)NCc3cccnc3)cc2)nc1NCc1cccnc1 [Compound 12, N-Methyl-2-[(pyridin-3-ylmethyl)-amino]-6-[4-(3-pyridin-3-ylmethyl-ureido)-phenyl]-nicotinamide]
20 | 77 | 78 |  | CNC(=O)c1ccc(-c2ccc(NC(=O)NCc3cccnc3)cc2)nc1NCCOC [Compound 51, 2-(2-Methoxy-ethylamino)-N-methyl-6-[4-(3-pyridin-3-ylmethyl-ureido)-phenyl]-nicotinamide]
21 |  |  | 223 to 226 | CCNc1nc(-c2ccc(NC(=O)NCc3ccc(N)nc3)cc2)ccc1C(=O)NC [Compound 21, 6-{-4-[3-(6-Amino-pyridin-3-ylmethyl)-ureido]-phenyl}-2-ethylamino-N-methyl-nicotinamide]
22 | 6.3 | 4.4 |  | CCNc1nc(-c2ccc(NC(=O)NCc3cccnc3)cc2)ccc1C(=O)NCCO [Compound 26, 2-Ethylamino-N-(2-hydroxy-ethyl)-6-[4-(3-pyridin-3-ylmethyl-ureido)-phenyl]-nicotinamide]
23 |  |  | 260 to 263 | CCNc1nc(-c2ccc(NC(=O)NCc3cccnc3)cc2)ccc1C(=O)NC [Compound 1, 2-Ethylamino-N-methyl-6-[4-(3-pyridin-3-ylmethyl-ureido)-phenyl]-nicotinamide]
24 | 2.2 | 1.7 |  | CCN(CC)c1nc(-c2ccc(NC(=O)NCc3cccnc3)cc2)ccc1C(=O)NC [Compound 25, 2-Diethylamino-N-methyl-6-[4-(3-pyridin-3-ylmethyl-ureido)-phenyl]-nicotinamide]
25 |  |  | 234 to 235 | CCNc1nc(-c2ccc(NC(=O)OCc3cccnc3)cc2)ccc1C(=O)NC [Compound 29, [4-(6-Ethylamino-5-methylcarbamoyl-pyridin-2-yl)-phenyl]-carbamic acid pyridin-3-ylmethyl ester]
26 | 2.5 | 1.2 |  | CCNc1cc(-c2ccc(NC(=O)NCc3cccnc3)cc2)ccc1C(=O)NC [Compound 62, 3-Ethylamino-4′-(3-pyridin-3-ylmethyl-ureido)-biphenyl-4-carboxylic acid methylamide]
27 | 0.1 | 0.1 | 234 to 236 | CNC(=O)c1ccc(-c2ccc(NC(=O)NCc3cccnc3)cc2)nc1Nc1ccccc1 [Compound 22, N-Methyl-2-phenylamino-6-[4-(3-pyridin-3-ylmethyl-ureido)-phenyl]-nicotinamide]
